Source: patent US10815238B2, “Antimicrobial compounds and methods of making and using the same” (BIOVERSYS AG, priority 2013, dated 2020)

Tests used:
[1] = tested on: Staphylococcus aureus (S. aureus) 11540 strain; experiment: Standard microdilution assay, MIC against S. aureus 11540; assay type: cell-based; settings: S. aureus 11540 strain, standard microdilution assay, cutoff 16 micrograms/mL, read-out: MIC S. aureus
Procedure, shortened: (§1)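 Scoring as + or − used a 16 micrograms/mL cutoff on minimum inhibitory concentrations. These came from CLSI-standard microdilution, quality-controlled with reference strains tested in the same run.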

[2] = tested on: Eschericia coli (E. coli) strain ATCC25922; experiment: Standard microdilution assay, MIC against E. coli ATCC25922; assay type: cell-based; settings: Escherichia coli; E. coli strain ATCC25922, standard microdilution assay; cutoff 16 micrograms/mL; read-out: MIC E. Coli
Procedure, shortened: as §1

Row | Structure (SMILES) | MIC [1] | MIC [2]
1 | C[C@H](N)CCCc1cc(Cl)c(F)c(-c2cc3cn(-c4ccc([C@@H]5CCC[C@@H](CCc6nccs6)N5)cc4)c(=O)nc3[nH]2)c1 [Compound 546] | < 16 µg/mL | > 16 µg/mL
2 | C[C@H](N)CCCc1cc(Cl)c(F)c(-c2cc3cn(-c4ccc([C@@H]5CCC[C@@H](CCNc6ncc[nH]6)N5)cc4)c(=O)nc3[nH]2)c1 [Compound 552] | < 16 µg/mL | < 16 µg/mL
3 | C[C@H](N)CCCc1cc(Cl)c(F)c(-c2cc3cn(-c4ccc([C@H]5CCO[C@H](CCN)C5)cc4)c(=O)nc3[nH]2)c1 [Compound 554] | < 16 µg/mL | < 16 µg/mL
4 | C[C@H](N)CCCc1cc(Cl)c(F)c(-c2cc3cn(-c4ccc([C@H]5CCO[C@H](CCNC(=N)N)C5)cc4)c(=O)nc3[nH]2)c1 [Compound 555] | < 16 µg/mL | < 16 µg/mL
5 | C[C@H](N)CCCc1cc(Cl)c(F)c(-c2cc3cn(-c4ccc([C@@H]5CCC[C@@H](CCCNC(=N)N)N5)cc4)c(=O)nc3[nH]2)c1 [Compound 556] | < 16 µg/mL | < 16 µg/mL
6 | C[C@H](N)CCCc1cc(Cl)c(F)c(-c2cc3cn(-c4ccc([C@@H]5CCC[C@@H](CNCc6ccncc6)N5)cc4)c(=O)nc3[nH]2)c1 [Compound 558] | < 16 µg/mL | < 16 µg/mL
7 | C[C@H](N)CCCc1cc(Cl)c(F)c(-c2cc3cn(-c4ccc([C@@H]5CCC[C@@H](CNCC6CCCC6)N5)cc4)c(=O)nc3[nH]2)c1 [Compound 559] | < 16 µg/mL | < 16 µg/mL
8 | C[C@H](N)CCCc1cc(Cl)c(F)c(-c2cc3cn(-c4ccc(C5=NCCCN5)cc4)c(=O)nc3[nH]2)c1 [Compound 564] | < 16 µg/mL | < 16 µg/mL
9 | C[C@H](N)CCCc1cc(Cl)c(F)c(-c2cc3cn(-c4ccc(C(=N)N)cc4)c(=O)nc3[nH]2)c1 [Compound 566] | < 16 µg/mL | > 16 µg/mL
10 | C[C@H](N)CCCc1cc(Cl)c(F)c(-c2cc3cn(-c4ccc([C@@H]5CCC[C@H]6CCN=CN65)cc4)c(=O)nc3[nH]2)c1 [Compound 567] | < 16 µg/mL | > 16 µg/mL
11 | C[C@H](CN)CN1CC[C@@H](c2cc3cn(-c4ccc([C@H](C)NCCCNC(=N)N)cc4)c(=O)nc3[nH]2)C1 [Compound 570] | < 16 µg/mL | < 16 µg/mL
12 | C[C@H](N)CCN1CC[C@@H](c2cc3cn(-c4ccc(CNCCCNC(=N)N)cc4)c(=O)nc3[nH]2)C1 [Compound 572] | < 16 µg/mL | < 16 µg/mL
13 | C[C@H](N)CCN1CC[C@@H](c2cc3cn(-c4ccc([C@H](C)NCCCNC(=N)N)cc4)c(=O)nc3[nH]2)C1 [Compound 573] | < 16 µg/mL | < 16 µg/mL
14 | C[C@@H](CN)CN1CC[C@@H](c2cc3cn(-c4ccc([C@H](C)NCCCNC(=N)N)cc4)c(=O)nc3[nH]2)C1 [Compound 575] | < 16 µg/mL | < 16 µg/mL
15 | C[C@@H](CNC(=N)N)CN1CC[C@@H](c2cc3cn(-c4ccc([C@H](C)NCCCNC(=N)N)cc4)c(=O)nc3[nH]2)C1 [Compound 576] | < 16 µg/mL | < 16 µg/mL
16 | C[C@H](N)CCCN1CC[C@@H](c2cc3cn(-c4ccc([C@H](C)NCCCNC(=N)N)cc4)c(=O)nc3[nH]2)C1 [Compound 578] | < 16 µg/mL | < 16 µg/mL
17 | C[C@@H](CN)CN1CC[C@@H](c2cc3cn(-c4ccc(C(=N)NCC[C@H](C)N)cc4)c(=O)nc3[nH]2)C1 [Compound 581] | < 16 µg/mL | < 16 µg/mL

The next lines start with the values.

Row | MIC [1] | MIC [2] | Structure (SMILES)
18 | < 16 µg/mL | < 16 µg/mL | C[C@H](N)CCCc1cc(Cl)c(F)c(-c2cc3cn(-c4ccc([C@H]5CCC[C@H](CCNc6ncc[nH]6)N5)cc4)c(=O)nc3[nH]2)c1 [Compound 542]
19 | > 16 µg/mL | > 16 µg/mL | C[C@H](N)CCCc1cc(Cl)c(F)c(-c2cc3cn(-c4ccc([C@@H]5CCC[C@@H](CCc6c[nH]nn6)N5)cc4)c(=O)nc3[nH]2)c1 [Compound 543]
20 | < 16 µg/mL | < 16 µg/mL | C[C@H](N)CCCc1cc(Cl)c(F)c(-c2cc3cn(-c4ccc(CN[C@H](CCNC(=N)N)CNS(C)(=O)=O)cc4)c(=O)nc3[nH]2)c1 [Compound 544]
21 | > 16 µg/mL | > 16 µg/mL | C[C@H](N)CCCc1cc(Cl)c(F)c(-c2cc3cn(-c4ccc([C@@H]5CCC[C@@H](CCn6ncoc6=O)N5)cc4)c(=O)nc3[nH]2)c1 [Compound 545]
22 | < 16 µg/mL | > 16 µg/mL | C[C@H](N)CCCc1cc(Cl)c(F)c(-c2cc3cn(-c4ccc([C@@H]5CCC[C@@H](CCn6cnc([N+](=O)[O-])c6)N5)cc4)c(=O)nc3[nH]2)c1 [Compound 548]
23 | < 16 µg/mL | < 16 µg/mL | C[C@H](N)CCCc1cc(Cl)c(F)c(-c2cc3cn(-c4ccc([C@@H]5CCC[C@@H](CCc6c[nH]cn6)N5)cc4)c(=O)nc3[nH]2)c1 [Compound 549]
24 | > 16 µg/mL | > 16 µg/mL | C[C@H](N)CCCc1cc(Cl)c(F)c(-c2cc3cn(-c4ccc([C@@H]5CCC[C@@H](CNCC6CCOCC6)N5)cc4)c(=O)nc3[nH]2)c1 [Compound 550]
25 | > 16 µg/mL | > 16 µg/mL | C[C@H](N)CCCc1cc(Cl)c(F)c(-c2cc3cn(-c4ccc([C@@H]5CCC[C@@H](CNCc6nccn6C)N5)cc4)c(=O)nc3[nH]2)c1 [Compound 551]
26 | < 16 µg/mL | < 16 µg/mL | C[C@H](N)CCCc1cc(OC(F)(F)F)c(F)c(-c2cc3cn(-c4ccc([C@@H]5CCC[C@@H](CCNc6ncc[nH]6)N5)cc4)c(=O)nc3[nH]2)c1 [Compound 553]
27 | < 16 µg/mL | < 16 µg/mL | C[C@H](N)CCCc1cc(Cl)c(F)c(-c2cc3cn(-c4ccc([C@@H]5CCC[C@@H](CCCN)N5)cc4)c(=O)nc3[nH]2)c1 [Compound 557]
28 | < 16 µg/mL | < 16 µg/mL | Cc1nnc(NC[C@@H](CCNC(=N)N)NCc2ccc(-n3cc4cc(-c5cc(CCC[C@H](C)N)cc(Cl)c5F)[nH]c4nc3=O)cc2)s1 [Compound 560]
29 | < 16 µg/mL | < 16 µg/mL | C[C@H](N)CCCc1cc(Cl)c(F)c(-c2cc3cn(-c4ccc([C@H]5CCO[C@H](CNC(=N)N)C5)cc4)c(=O)nc3[nH]2)c1 [Compound 561]
30 | < 16 µg/mL | < 16 µg/mL | C[C@H](N)CCCc1cc(Cl)c(F)c(-c2cc3cn(-c4ccc(CNC5CC(NC(=N)N)C5)cc4)c(=O)nc3[nH]2)c1 (stereo partly drawn) [Compound 563]
31 | < 16 µg/mL | < 16 µg/mL | C[C@H](N)CCCc1cc(OC(F)(F)F)c(F)c(-c2cc3cn(-c4ccc(C5=NCCCN5)cc4)c(=O)nc3[nH]2)c1 [Compound 565]
32 | < 16 µg/mL | > 16 µg/mL | CC1=NCC[C@@H]2CCC[C@@H](c3ccc(-n4cc5cc(-c6cc(CCC[C@H](C)N)cc(Cl)c6F)[nH]c5nc4=O)cc3)N12 [Compound 568]
33 | < 16 µg/mL | < 16 µg/mL | C[C@@H](CN)CN1CC[C@@H](c2cc3cn(-c4ccc(CNCCCNC(=N)N)cc4)c(=O)nc3[nH]2)C1 [Compound 569]
34 | < 16 µg/mL | < 16 µg/mL | C[C@H](CN)COC(=O)N1CC[C@@H](c2cc3cn(-c4ccc(CNCCCNC(=N)N)cc4)c(=O)nc3[nH]2)C1 [Compound 571]
35 | > 16 µg/mL | < 16 µg/mL | C[C@@H](CN)CN1CC[C@@H](c2cc3cn(-c4ccc(CN5CCCNC5=N)cc4)c(=O)nc3[nH]2)C1 [Compound 574]
36 | < 16 µg/mL | < 16 µg/mL | C[C@H](N)CCCN1CC[C@@H](c2cc3cn(-c4ccc(CNCCCNC(=N)N)cc4)c(=O)nc3[nH]2)C1 [Compound 577]
37 | < 16 µg/mL | < 16 µg/mL | C[C@H](N)CCN1CCC(c2cc3cn(-c4ccc([C@@H]5CCC[C@@H](CCNC(=N)N)N5)cc4)c(=O)nc3[nH]2)C1 (stereo partly drawn) [Compound 579]
38 | > 16 µg/mL | > 16 µg/mL | C[C@@H](CN)CN1CC[C@@H](c2cc3cn(-c4ccc(C(=N)NC5CCCC5)cc4)c(=O)nc3[nH]2)C1 [Compound 580]
39 | > 16 µg/mL | > 16 µg/mL | C[C@H](N)CCCc1cc(-c2cc3cn(CC(=O)NCc4ccc(CNC(=N)N)cc4)c(=O)nc3[nH]2)cc(C(F)(F)F)c1 [Compound 582]
